For series [1], the system named is Plasmodium falciparum. Kind of series: Antimalarial activity against multi-drug-resistant Plasmodium falciparum W2 infected in human type A+ erythrocytes assessed as growth inhibition after 72 hrs by SYBR Green I assay. Format: functional, organism-based. To be noted: W2, 72 h.
The subject of series [2] is Plasmodium falciparum. Description: Antimalarial activity against multi-drug-resistant Plasmodium falciparum TM90-C2B infected in human type A+ erythrocytes assessed as growth inhibition after 72 hrs by SYBR Green I assay. Type of series: functional, organism-based.
The nature of series [3]: Resistance index, ratio of EC50 for multi-drug-resistant Plasmodium falciparum TM90-C2B infected in human type A+ erythrocytes to EC50 for multi-drug-resistant Plasmodium falciparum W2 infected in human type A+ erythrocytes. Format: functional.
The test system of a further series is J774. Kind of series: Cytotoxicity against mouse J774 cells after 72 hrs by CellTiter 96 assay. Type of series: cell-based. To be noted: J774, 72 h.
A short description of series [4]: Cytotoxicity index, ratio of EC50 for mouse J774 cells to EC50 for multi-drug-resistant Plasmodium falciparum TM90-C2B infected in human type A+ erythrocytes. Type of series: toxicity, cell-based. To be noted: read-out: Ratio EC50.
The conditions of series [5]: octanol/water, pH 7.4.

Where only a bound is given, the exact number is not on record here.

What is called EC50 is the concentration at which the effect is half-maximal. Consider `COc1cc2[nH]c(C)c(-c3ccc(C)cc3)c(=O)c2cc1Cl`, for which the EC50 is 24.5 nM in the series on Plasmodium falciparum [1], 7.33 nM in the series on Plasmodium falciparum [2] and more than 31900 nM in the series with J774. The “Ratio EC50” value in series [3] is given as 0.3. For the same compound, the selectivity ratio in series [4] was more than 4350.
Consider `COc1cc2[nH]c(C)c(-c3ccc(C)cc3C)c(=O)c2cc1Cl`, for which the EC50 was found to be 9.15 nM with Plasmodium falciparum [1], 3.17 nM with Plasmodium falciparum [2] and 3740 nM in the series with J774. In series [3], the “Ratio EC50” value is on record as 0.35. In addition, in series [4], the selectivity ratio came to 1180.
`COc1cc2[nH]c(C)c(-c3c(C)cc(C)cc3C)c(=O)c2cc1Cl`: the EC50 is 46 nM in the series on Plasmodium falciparum [1], 46.3 nM with Plasmodium falciparum [2] and 2990 nM in the series with J774. In series [3], the “Ratio EC50” value was found to be 1.01. Besides, in series [4], the selectivity ratio came to 64.6.
For `CCc1ccccc1-c1c(C)[nH]c2cc(OC)c(Cl)cc2c1=O` the same measures were 61.7 nM, 160 nM, 16200 nM, 2.59 and 102.
On to `COc1cc2[nH]c(C)c(-c3ccc(C(C)C)cc3)c(=O)c2cc1Cl`, for which the EC50 in the series on Plasmodium falciparum [1] is 6.65 nM; in the series on Plasmodium falciparum [2] it was 2.67 nM; with J774, more than 29300 nM. In series [3], the “Ratio EC50” value is reported as 0.4. The selectivity ratio in series [4] is more than 11000.
With `COc1cc2[nH]c(C)c(-c3ccc(C(C)(C)C)cc3)c(=O)c2cc1Cl`, the EC50 is 66.8 nM in the series with Plasmodium falciparum [1], 116 nM with Plasmodium falciparum [2] and more than 28100 nM in the series with J774.
Consider `COc1cc2[nH]c(C)c(-c3ccccn3)c(=O)c2cc1Cl`, for which the EC50 was 928 nM in the series with Plasmodium falciparum [1], 214 nM in the series with Plasmodium falciparum [2] and more than 33300 nM in the series on J774. The “Ratio EC50” value in series [3] worked out at 0.23. The selectivity ratio in series [4] is more than 156.
`COc1cc2[nH]c(C)c(-c3cncnc3)c(=O)c2cc1Cl`: the EC50 in the series on Plasmodium falciparum [1] is 2990 nM; in the series with Plasmodium falciparum [2], 1360 nM; in the series on J774 it was more than 33100 nM. Moreover, in series [3], the “Ratio EC50” value was determined as 0.45. For the same compound, in series [4], the selectivity ratio was more than 24.4.
For the compound `COc1cc2[nH]c(C)c(-c3ccoc3)c(=O)c2cc1Cl`, the EC50 is 13.3 nM in the series with Plasmodium falciparum [1], 1.85 nM in the series with Plasmodium falciparum [2] and more than 34500 nM with J774. In addition, the “Ratio EC50” value in series [3] stood at 0.14. Besides, the selectivity ratio in series [4] was more than 18600.
Take `COc1cc2[nH]c(C)c(-c3c(C)noc3C)c(=O)c2cc1Cl`: the EC50 with Plasmodium falciparum [1] is 1060 nM; in the series with Plasmodium falciparum [2] it was 629 nM; in the series with J774 it was more than 31400 nM. For the same compound, in series [3], the “Ratio EC50” value is listed as 0.59. Further, the selectivity ratio in series [4] is more than 49.9.
`COc1cc2[nH]c(C)c(-c3ccc4nonc4c3)c(=O)c2cc1Cl`: the results for the EC50 in the series on Plasmodium falciparum [1], in the series on Plasmodium falciparum [2] and in the series on J774 were 1970 nM, 80.6 nM and more than 29300 nM, respectively. Also, the “Ratio EC50” value in series [3] came to 0.04. In addition, the selectivity ratio in series [4] is more than 363.
In the case of `COc1cc2[nH]c(C)c(-c3cc4ccccc4o3)c(=O)c2cc1Cl`, the 50% effective concentration (EC50) in the series with Plasmodium falciparum [1] is 133 nM; with Plasmodium falciparum [2], 138 nM; in the series with J774, more than 29400 nM. For the same compound, the “Ratio EC50” value in series [3] is 1.04. In addition, the selectivity ratio in series [4] was more than 214.
As for `COc1cc2[nH]c(C)c(-c3cc4ccccc4s3)c(=O)c2cc1Cl`, the results for the EC50 with Plasmodium falciparum [1], in the series with Plasmodium falciparum [2] and with J774 were 71.8 nM, 24.8 nM and more than 28100 nM, respectively. For the same compound, the “Ratio EC50” value in series [3] came out at 0.35. In series [4], the selectivity ratio was more than 1130.
For `COc1cc2[nH]c(C)c(-c3ccc4c(c3)OCCO4)c(=O)c2cc1Cl` the same measures were 173 nM, 91.9 nM, more than 27900 nM, 0.53 and more than 304.
For `COc1cc2[nH]c(C)c(-c3cccc4c3oc3ccccc34)c(=O)c2cc1Cl` the same measures were 49 nM, 33.6 nM, more than 25700 nM, 0.68 and more than 765.
Take `COc1cc2[nH]c(C)c(-c3ccc(C=O)cc3)c(=O)c2cc1Cl`: the EC50 in the series with Plasmodium falciparum [1] was 5520 nM; in the series on Plasmodium falciparum [2] it was more than 3810 nM; in the series on J774, more than 30500 nM. Further, the “Ratio EC50” value in series [3] is 0.7.
Consider `COc1cc2[nH]c(C)c(-c3ccc(C(C)=O)cc3)c(=O)c2cc1Cl`, for which the EC50 with Plasmodium falciparum [1] is 777 nM; in the series on Plasmodium falciparum [2], 48.4 nM; in the series on J774, more than 29300 nM. Also, the “Ratio EC50” value in series [3] is 0.06. The selectivity ratio in series [4] is more than 605.
For the compound `COc1cc2[nH]c(C)c(-c3ccc(C(=O)O)cc3)c(=O)c2cc1Cl`, the EC50 with Plasmodium falciparum [1] was 517 nM; with Plasmodium falciparum [2], 73.1 nM; with J774 it was more than 29100 nM. Moreover, the “Ratio EC50” value in series [3] is 0.14. Moreover, in series [4], the selectivity ratio was more than 398.
With `COC(=O)c1ccc(-c2c(C)[nH]c3cc(OC)c(Cl)cc3c2=O)cc1`, the EC50 with Plasmodium falciparum [1] was 22.5 nM; with Plasmodium falciparum [2], 26 nM; with J774, more than 27900 nM. The “Ratio EC50” value in series [3] is recorded as 1.16. Further, the selectivity ratio in series [4] was more than 1080.
With `COc1cc2[nH]c(C)c(-c3ccc(N(C)C)cc3)c(=O)c2cc1Cl`, the EC50 stood at 60.7 nM with Plasmodium falciparum [1] and 15.3 nM in the series on Plasmodium falciparum [2]. Moreover, the “Ratio EC50” value in series [3] was determined as 0.25. In addition, the selectivity ratio in series [4] was more than 1900.
On to `COc1cc2[nH]c(C)c(-c3ccc(S(=O)(=O)N(C)C)cc3)c(=O)c2cc1Cl`, for which the EC50 in the series on Plasmodium falciparum [1] is 1890 nM; with Plasmodium falciparum [2] it was 152 nM; in the series on J774, more than 24600 nM. The “Ratio EC50” value in series [3] worked out at 0.08. Moreover, the selectivity ratio in series [4] is more than 162.
As to `COc1cc2[nH]c(C)c(-c3ccc(O)cc3)c(=O)c2cc1Cl`, the EC50 in the series with Plasmodium falciparum [1] was 2860 nM; in the series on Plasmodium falciparum [2], 467 nM; in the series on J774, more than 31700 nM. Further, in series [3], the “Ratio EC50” value stood at 0.16. Besides, the selectivity ratio in series [4] is more than 67.8.
For `COc1cc2[nH]c(C)c(-c3ccccc3CO)c(=O)c2cc1Cl` the same measures were 258 nM, 277 nM, more than 30300 nM, 1.08 and more than 109.
The like results for `COc1cc2[nH]c(C)c(-c3cccc(CO)c3)c(=O)c2cc1Cl` were, in that order, 5400 nM, 829 nM, more than 30300 nM, 0.15 and more than 36.6.
`COc1cc2[nH]c(C)c(-c3ccc(OCc4ccccc4)cc3)c(=O)c2cc1Cl`: the EC50 with Plasmodium falciparum [1] is 10.6 nM; in the series with Plasmodium falciparum [2], 1.28 nM; in the series with J774 it was more than 24600 nM. In addition, in series [3], the “Ratio EC50” value worked out at 0.12. In series [4], the selectivity ratio was more than 19300.
As to `COc1cc2[nH]c(C)c(-c3ccc(COc4ccccc4)cc3)c(=O)c2cc1Cl`, the EC50 with Plasmodium falciparum [1] was 1.3 nM; in the series with Plasmodium falciparum [2], 0.638 nM. In series [3], the “Ratio EC50” value was determined as 0.49.
Take `COc1cc2[nH]c(C)c(-c3c(F)cccc3F)c(=O)c2cc1Cl`: the EC50 in the series on Plasmodium falciparum [1] was 35.7 nM; in the series with Plasmodium falciparum [2], 8.64 nM; in the series with J774, more than 29800 nM. The “Ratio EC50” value in series [3] came out at 0.24. The selectivity ratio in series [4] is more than 3450.
The like results for `COc1cc2[nH]c(C)c(-c3cc(C(F)(F)F)cc(C(F)(F)F)c3)c(=O)c2cc1Cl` were, in that order, 1680 nM, 449 nM, more than 22900 nM, 0.27 and more than 51.1.
Turning to `COc1cc2[nH]c(C)c(-c3ccc(C(F)(F)F)cc3F)c(=O)c2cc1Cl`, the EC50 in the series on Plasmodium falciparum [1] was 21.4 nM; in the series on Plasmodium falciparum [2] it was 10.4 nM; in the series on J774 it was more than 25900 nM. For the same compound, the “Ratio EC50” value in series [3] was 0.48. Further, the selectivity ratio in series [4] is more than 2500.
As to `CCOc1cc(-c2c(C)[nH]c3cc(OC)c(Cl)cc3c2=O)ccc1F`, the EC50 was 194 nM with Plasmodium falciparum [1], 25.8 nM in the series with Plasmodium falciparum [2] and more than 27600 nM in the series on J774. In addition, in series [3], the “Ratio EC50” value is on record as 0.13. For the same compound, the selectivity ratio in series [4] is more than 1070.
Take `COc1cc2[nH]c(C)c(-c3ccc(OC)c(F)c3F)c(=O)c2cc1Cl`: the EC50 with Plasmodium falciparum [1] was 157 nM; in the series with Plasmodium falciparum [2], 403 nM; in the series with J774, more than 27300 nM. Moreover, in series [3], the “Ratio EC50” value is given as 2.57. In addition, the selectivity ratio in series [4] was more than 67.8.
For `COc1cc2[nH]c(C)c(-c3ccccc3OC(F)(F)F)c(=O)c2cc1Cl` the same measures were 443 nM, 1910 nM, more than 30200 nM, 4.32 and more than 15.8.
With `COc1cc2[nH]c(C)c(-c3ccc(OCc4ccc(F)cc4)cc3)c(=O)c2cc1Cl`, the EC50 in the series on Plasmodium falciparum [1] was 5.18 nM; in the series with Plasmodium falciparum [2] it was 1.56 nM; in the series with J774, more than 23600 nM.
As usually defined, the logD is lipophilicity at a set pH, counting ionised and neutral species. Higher therefore signals a more lipophilic compound. In turn, `C(=C\c1ccccc1)/CN1CCN(C(c2ccccc2)c2ccccc2)CC1` [CINNARIZINE] yielded a log distribution coefficient (logD) in series [5] of 5.68.
Still for that read-out and setting: the figure for `CC(C)(C)NCC(O)COc1cccc2c1CC(O)C(O)C2` (stereo not given) [NADOLOL] is 0.68.
The compound `Cn1c(=O)c2[nH]cnc2n(C)c1=O.O` [THEOPHYLLINE] yielded a logD in series [5] of -5.

For the origin of these results see ChEMBL document CHEMBL3351419, “Orally bioavailable 6-chloro-7-methoxy-4(1H)-quinolones efficacious against multiple stages of Plasmodium” (J Med Chem, 2014).
